The record followed here is patent US4835161A, “Anti-histaminic compositions containing n-heterocyclyl-4-piperidinamines” (Janssen Pharmaceutica N.V., priority 1987, dated 1989).

The subject of this assay is compound 48/80-induced lethality. Kind of assay: Protection of rats from compound 48/80-induced lethality. Type of assay: in vivo, rat (male, inbred Wistar strain). Conditions: Rattus norvegicus; subcutaneous or oral; 1 h before compound 48/80 0.5 mg/kg i.v.; survival after 4 h; dose protecting 50% of animals; read-out: compound 48/80 lethality test in rats-ED50. How it is done:
Protection of rats from compound 48/80-induced lethality
The protection from compound 48/80-induced lethal circulatory collapse appears to be a simple way of evaluating quantitatively the antihistaminic activity of test compounds. Male rats of an inbred Wistar strain, weighing 240-260 g were used in the experiment. After overnight starvation the rats were transferred to conditioned laboratories (temp.=21±1° C., relative humidity=65±5%). The rats were treated subcutaneously or orally with a test compound or with the solvent (NaCl solution, 0.9%). One hour after treatment there was injected intravenously compound 48/80, freshly dissolved in water, at a dose of 0.5 mg/kg (0.2 ml/100 g of body weight). […] Survival after 4 hours is therefore considered to be a safe criterion of a protective effect of drug administration. Said ED50 -values are the values in mg/kg body weight at which the tested compounds protect 50% of the tested animals against compound 48/80-induced lethality.
In the case of `Cc1ccc(Cn2c(NC3CCNCC3)nc3cccnc32)o1` [compound 166, 3-[(5-methyl-2-furanyl)methyl]-N-(4-piperidinyl)-3H-imidazo[4,5-b]pyridin-2-amine], the ED50 is 0.04 mg/kg. To `c1coc(Cn2c(NC3CCNCC3)nc3cccnc32)c1` [compound 140, 3-(2-furanylmethyl)-N-(4-piperidinyl)-3H-imidazo[4,5-b]pyridin-2-amine] belongs 0.08 mg/kg; to `Fc1ccc(Cn2c(NC3CCNCC3)nc3ncccc32)cc1` [compound 135], 0.01 mg/kg. On to `Fc1ccc(Cn2c(NC3CCNCC3)nc3cccnc32)cc1` [compound 123], for which the ED50 was found to be 0.08 mg/kg.
